# Source: patent US20250296959A1, “B7-H3 TARGETING PEPTIDES AND CONSTRUCTS THEREOF” (Mariana Oncology Inc., priority 2024, published 2025)
# Starred links: 1 amine or outer side, 2 acyl side, 3 side chain; linkers in the order of their positions; H or OH if unused. Positions of bridges follow the written chain, without caps; N, C: chain ends. Non-standard residues stand in square brackets, D forms with d. Residues, ends and D or L forms follow the SMILES beside them. *: point of attachment. Ala(piperidin-4-yl) = O=C([C@H](CC1CCN([*:3])CC1)N[*:1])[*:2]; DOTA = O=C(O)CN1CCN(CC(=O)O)CCN(CC(=O)*)CCN(CC(=O)O)CC1; NH(CH2CH2O)4CH2CO = O=C(COCCOCCOCCOCCN[*:1])[*:2]; Trp(5-F) = N[C@@H](Cc1c[nH]c2ccc(F)cc12)C(=O)O; Phe(4-F) = N[C@@H](Cc1ccc(F)cc1)C(=O)O; 1Nal = N[C@@H](Cc1cccc2ccccc12)C(=O)O; Ala(4-THP) = N[C@@H](CC1CCOCC1)C(=O)O; AEF = NCCOc1ccc(C[C@H](N)C(=O)O)cc1; Val(3-OH) = CC(C)(O)[C@H](N)C(=O)O; 4Pal = N[C@@H](Cc1ccncc1)C(=O)O; Cha = N[C@@H](CC1CCCCC1)C(=O)O; Chg = N[C@H](C(=O)O)C1CCCCC1; Tle = CC(C)(C)[C@H](N)C(=O)O; hLeu = CC(C)CC[C@H](N)C(=O)O; αMeK = C[C@](N)(CCCCN)C(=O)O; NMeS = CN[C@@H](CO)C(=O)O; hSer = N[C@@H](CCO)C(=O)O
# Biological target: T1, human 4lg B7-H3 (Homo sapiens, UniProt Q5ZPR3)
# T1 sequence (Q5ZPR3 29-534): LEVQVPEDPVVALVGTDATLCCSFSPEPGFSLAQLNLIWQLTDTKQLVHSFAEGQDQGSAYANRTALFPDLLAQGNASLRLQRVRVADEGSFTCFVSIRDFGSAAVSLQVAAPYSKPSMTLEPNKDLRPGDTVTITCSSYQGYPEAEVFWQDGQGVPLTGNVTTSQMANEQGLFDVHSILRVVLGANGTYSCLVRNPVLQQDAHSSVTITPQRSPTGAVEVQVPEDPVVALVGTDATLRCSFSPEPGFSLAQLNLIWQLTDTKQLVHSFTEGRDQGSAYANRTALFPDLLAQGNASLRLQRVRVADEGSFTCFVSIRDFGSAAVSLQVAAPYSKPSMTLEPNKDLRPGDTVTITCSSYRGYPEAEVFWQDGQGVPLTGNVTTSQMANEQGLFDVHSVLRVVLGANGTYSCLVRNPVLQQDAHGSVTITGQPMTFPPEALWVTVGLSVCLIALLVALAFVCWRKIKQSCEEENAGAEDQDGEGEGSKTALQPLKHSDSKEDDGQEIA
# Assay: Affinity determination by surface plasmon resonance (SPR) to 4Ig B7-H3
# Details: SPR KD—25° C., 4Ig B7-H3; 25° C. flow cell temperature
row,Kd [nM],Compound
1,< 1,"CC(=O)N[C@@H](CCC(C)C)C(=O)N[C@@H](Cc1ccc(O)cc1)C(=O)N[C@H]1CSSC[C@@H](C(=O)N[C@@H](Cc2c[nH]c3ccccc23)C(=O)N[C@@H](Cc2ccccc2)C(=O)N[C@H](C(=O)N[C@H](CCCCNC(=O)CN2CCN(CC(=O)O)CCN(CC(=O)O)CCN(CC(=O)O)CC2)C(N)=O)[C@@H](C)O)NC(=O)[C@H](Cc2ccc(O)cc2)NC(=O)[C@H](C2CCCCC2)NC(=O)[C@H](CC(=O)O)NC(=O)[C@H](Cc2ccc(O)cc2)NC(=O)[C@H](CCCCN)NC(=O)CNC(=O)[C@H](C(C)(C)C)NC1=O [compound 216, Ac-hLeu-Y-C-Tbg-G-K-Y-D-ChG-Y-C-W-F-Thr-dLys(DOTA)-CONH2] (Ac-[hLeu]YC[Tle]GKYD[Chg]YCWFT[dK](DOTA)-NH2; disulfide 3-11)"
2,1 to 10,"CC(=O)N[C@@H](CCC(C)C)C(=O)N[C@@H](Cc1ccc(O)cc1)C(=O)N[C@H]1CSSC[C@@H](C(=O)N[C@@H](Cc2cccc3ccccc23)C(=O)N[C@@H](Cc2ccccc2)C(=O)N[C@H](C(=O)N[C@H](CCCCNC(=O)CN2CCN(CC(=O)O)CCN(CC(=O)O)CCN(CC(=O)O)CC2)C(N)=O)[C@@H](C)O)NC(=O)[C@H](Cc2ccc(O)cc2)NC(=O)[C@H](C2CCCCC2)NC(=O)[C@H](CC(=O)O)NC(=O)[C@H](Cc2ccc(O)cc2)NC(=O)[C@H](CCCCN)NC(=O)CNC(=O)[C@H](C(C)(C)C)NC1=O [compound 180, Ac-hLeu-Y-C-Tbg-G-K-Y-D-Chg-Y-C-1Nal-F-Thr-dLys(DOTA)-CONH2] (Ac-[hLeu]YC[Tle]GKYD[Chg]YC[1Nal]FT[dK](DOTA)-NH2; disulfide 3-11)"
3,< 1,"CC(=O)N[C@@H](CCC(C)C)C(=O)N[C@@H](Cc1ccc(O)cc1)C(=O)N[C@H]1CSSC[C@@H](C(=O)N[C@@H](Cc2c[nH]c3ccc(F)cc23)C(=O)N[C@@H](Cc2ccccc2)C(=O)N[C@H](C(N)=O)[C@@H](C)O)NC(=O)[C@H](Cc2ccc(O)cc2)NC(=O)[C@H](C(C)C)NC(=O)[C@H](CC(=O)O)NC(=O)[C@H](Cc2ccc(OCCNC(=O)CN3CCN(CC(=O)O)CCN(CC(=O)O)CCN(CC(=O)O)CC3)cc2)NC(=O)[C@H](CCCCN)NC(=O)CNC(=O)[C@H](C(C)C)NC1=O [compound 295, Ac-hLeu-Y-C-V-G-K-AEF(DOTA)-D-V-Y-C-5FW-F-Thr-CONH2] (Ac-[hLeu]YCVGK[AEF](DOTA)DVYC[Trp(5-F)]FT-NH2; disulfide 3-11)"
4,100 to 300,"CC(=O)N[C@@H](CCC(C)C)C(=O)N[C@@H](Cc1ccc(O)cc1)C(=O)N[C@H]1CSSC[C@@H](C(=O)N[C@@H](Cc2c[nH]c3ccccc23)C(=O)N[C@@H](Cc2ccccc2)C(=O)N[C@H](C(=O)N[C@H](CCCCNC(=O)CN2CCN(CC(=O)O)CCN(CC(=O)O)CCN(CC(=O)O)CC2)C(N)=O)[C@@H](C)O)NC(=O)[C@H](Cc2ccc(O)cc2)NC(=O)[C@H](C(C)(C)O)NC(=O)[C@H](CC(=O)O)NC(=O)[C@H](Cc2ccc(O)cc2)NC(=O)[C@H](CCCCN)NC(=O)CNC(=O)[C@H](C(C)C)NC1=O [compound 127, Ac-hLeu-Y-C-V-G-K-Y-D-hydroVal-Y-C-W-F-Thr-dLys(DOTA)-CONH2] (Ac-[hLeu]YCVGKYD[Val(3-OH)]YCWFT[dK](DOTA)-NH2; disulfide 3-11)"
5,10 to 100,"CC(=O)N[C@@H](CCC(C)C)C(=O)N[C@@H](Cc1ccc(O)cc1)C(=O)N[C@H]1CSSC[C@@H](C(=O)N[C@@H](Cc2cccc3ccccc23)C(=O)N[C@@H](Cc2ccccc2)C(=O)N(C)[C@@H](CO)C(=O)N[C@H](CCCCNC(=O)CN2CCN(CC(=O)O)CCN(CC(=O)O)CCN(CC(=O)O)CC2)C(N)=O)NC(=O)[C@H](CC2CCCCC2)NC(=O)[C@H](C(C)C)NC(=O)[C@H](CC(=O)O)NC(=O)[C@H](Cc2ccncc2)NC(=O)[C@H](CCCCN)NC(=O)CNC(=O)[C@H](C(C)(C)C)NC1=O [compound 220, Ac-hLeu-Y-C-Tbg-G-K-4PyA-D-V-Cha-C-1Nal-F-NMeSer-dLys(DOTA)-CONH2] (Ac-[hLeu]YC[Tle]GK[4Pal]DV[Cha]C[1Nal]F[NMeS][dK](DOTA)-NH2; disulfide 3-11)"

# More lines, now with the values behind:
row,Compound,Kd [nM]
1,"CC(=O)N[C@@H](CCC(C)C)C(=O)N[C@@H](Cc1ccc(O)cc1)C(=O)N[C@H]1CSSC[C@@H](C(=O)N[C@@H](Cc2c[nH]c3ccc(F)cc23)C(=O)N[C@@H](Cc2ccccc2)C(=O)N2CCC[C@H]2C(N)=O)NC(=O)[C@H](Cc2ccc(O)cc2)NC(=O)[C@H](C(C)C)NC(=O)[C@H](CC(=O)O)NC(=O)[C@H](CC2CCOCC2)NC(=O)[C@H](CCCCNC(=O)CN2CCN(CC(=O)O)CCN(CC(=O)O)CCN(CC(=O)O)CC2)NC(=O)CNC(=O)[C@H](C(C)(C)C)NC1=O [compound 273, Ac-hLeu-Y-C-Tbg-G-Lys(DOTA)-ThpA-D-V-Y-C-5FW-F-Pro-CONH2] (Ac-[hLeu]YC[Tle]GK(DOTA)[Ala(4-THP)]DVYC[Trp(5-F)]FP-NH2; disulfide 3-11)",10 to 100
2,"CC[C@H](C)[C@@H]1NC(=O)[C@@H](NC(=O)[C@H](Cc2ccc(O)cc2)NC(=O)[C@H](CCC(C)C)NC(C)=O)CSSC[C@@H](C(=O)N[C@@H](Cc2c[nH]c3ccc(F)cc23)C(=O)N[C@@H](Cc2ccccc2)C(=O)N(C)[C@@H](CO)C(N)=O)NC(=O)[C@H](Cc2ccc(O)cc2)NC(=O)[C@H](C(C)C)NC(=O)[C@H](CC(=O)O)NC(=O)[C@H](CC2CCCCC2)NC(=O)[C@H](CCCCNC(=O)CN2CCN(CC(=O)O)CCN(CC(=O)O)CCN(CC(=O)O)CC2)NC(=O)CNC1=O [compound 232, Ac-hLeu-Y-C-Ile-G-Lys(DOTA)-CHA-D-V-Y-C-5FW-F-NMeSer-CONH2] (Ac-[hLeu]YCIGK(DOTA)[Cha]DVYC[Trp(5-F)]F[NMeS]-NH2; disulfide 3-11)",10 to 100
3,"CC(=O)N[C@@H](CCC(C)C)C(=O)N[C@@H](Cc1ccc(O)cc1)C(=O)N[C@H]1CSSC[C@@H](C(=O)N[C@@H](Cc2c[nH]c3ccc(F)cc23)C(=O)N[C@@H](Cc2ccccc2)C(=O)N(C)[C@@H](CO)C(N)=O)NC(=O)[C@H](Cc2ccc(O)cc2)NC(=O)[C@H](C(C)C)NC(=O)[C@H](CC(=O)O)NC(=O)[C@H](CC2CCCCC2)NC(=O)[C@H](CCCCNC(=O)CN2CCN(CC(=O)O)CCN(CC(=O)O)CCN(CC(=O)O)CC2)NC(=O)CNC(=O)[C@H](C(C)C)NC1=O [compound 233, Ac-hLeu-Y-C-V-G-Lys(DOTA)-CHA-D-V-Y-C-5FW-F-NMeSer-CONH2] (Ac-[hLeu]YCVGK(DOTA)[Cha]DVYC[Trp(5-F)]F[NMeS]-NH2; disulfide 3-11)",10 to 100
4,"CC(=O)N[C@@H](CCC(C)C)C(=O)N[C@@H](Cc1ccc(O)cc1)C(=O)N[C@H]1CSSC[C@@H](C(=O)N[C@@H](Cc2c[nH]c3ccc(F)cc23)C(=O)N[C@@H](Cc2ccccc2)C(=O)N[C@H](C(=O)N[C@H](CCCCNC(=O)CN2CCN(CC(=O)O)CCN(CC(=O)O)CCN(CC(=O)O)CC2)C(=O)O)[C@@H](C)O)NC(=O)[C@H](Cc2ccc(O)cc2)NC(=O)[C@H](C(C)C)NC(=O)[C@H](CC(=O)O)NC(=O)[C@H](CC2CCOCC2)NC(=O)[C@](C)(CCCCN)NC(=O)CNC(=O)[C@H](C(C)(C)C)NC1=O [compound 353, Ac-hLeu-Y-C-Tbg-G-aMeLys-ThpA-D-V-Y-C-5FW-F-Thr-dLys(DOTA)-COOH] (Ac-[hLeu]YC[Tle]G[αMeK][Ala(4-THP)]DVYC[Trp(5-F)]FT[dK](DOTA)-OH; disulfide 3-11)",100 to 300
5,"CC(=O)N[C@@H](CCC(C)C)C(=O)N[C@@H](Cc1ccc(O)cc1)C(=O)N[C@H]1CSSC[C@@H](C(=O)N[C@@H](Cc2c[nH]c3ccc(F)cc23)C(=O)N[C@@H](Cc2ccccc2)C(=O)N2CCC[C@H]2C(=O)N[C@H](CCCCNC(=O)CN2CCN(CC(=O)O)CCN(CC(=O)O)CCN(CC(=O)O)CC2)C(=O)O)NC(=O)[C@H](Cc2ccc(O)cc2)NC(=O)[C@H](C(C)C)NC(=O)[C@H](CC(=O)O)NC(=O)[C@H](CC2CCOCC2)NC(=O)[C@H](CCO)NC(=O)CNC(=O)[C@H](C(C)(C)C)NC1=O [compound 311, Ac-hLeu-Y-C-Tbg-G-hSer-ThpA-D-V-Y-C-5FW-F-Pro-dLys(DOTA)-COOH] (Ac-[hLeu]YC[Tle]G[hSer][Ala(4-THP)]DVYC[Trp(5-F)]FP[dK](DOTA)-OH; disulfide 3-11)",1 to 10
6,"CC(C)CC[C@H](NC(=O)COCCOCCOCCOCCNC(=O)CN1CCN(CC(=O)O)CCN(CC(=O)O)CCN(CC(=O)O)CC1)C(=O)N[C@@H](Cc1ccc(F)cc1)C(=O)N[C@H]1CSSC[C@@H](C(=O)N[C@@H](Cc2cccc3ccccc23)C(=O)N[C@@H](Cc2ccccc2)C(=O)N2CCC[C@H]2C(N)=O)NC(=O)[C@H](Cc2ccc(O)cc2)NC(=O)[C@H](C(C)C)NC(=O)[C@H](CC(=O)O)NC(=O)[C@H](CC2CCOCC2)NC(=O)[C@H](CC2CCNCC2)NC(=O)CNC(=O)[C@H](C(C)(C)C)NC1=O [compound 283, DOTA-PEG4-hLeu-4FPhe-C-Tbg-G-PipAla-ThpA-D-V-Y-C-1Nal-F-Pro-CONH2] ({DOTA}-[NH(CH2CH2O)4CH2CO][hLeu][Phe(4-F)]C[Tle]G[Ala(piperidin-4-yl)][Ala(4-THP)]DVYC[1Nal]FP-NH2; disulfide 4-12)",10 to 100

# Same assay, conditions: SPR KD—37° C., 4Ig B7-H3; 37° C. flow cell temperature
row,Kd [nM],Compound
1,< 1,"CC(=O)N[C@@H](CCC(C)C)C(=O)N[C@@H](Cc1ccc(O)cc1)C(=O)N[C@H]1CSSC[C@@H](C(=O)N[C@@H](Cc2c[nH]c3ccc(F)cc23)C(=O)N[C@@H](Cc2ccccc2)C(=O)N[C@H](C(N)=O)[C@@H](C)O)NC(=O)[C@H](Cc2ccc(O)cc2)NC(=O)[C@H](C(C)C)NC(=O)[C@H](CC(=O)O)NC(=O)[C@H](Cc2ccc(OCCNC(=O)CN3CCN(CC(=O)O)CCN(CC(=O)O)CCN(CC(=O)O)CC3)cc2)NC(=O)[C@H](CCCCN)NC(=O)CNC(=O)[C@H](C(C)C)NC1=O [compound 295, Ac-hLeu-Y-C-V-G-K-AEF(DOTA)-D-V-Y-C-5FW-F-Thr-CONH2] (Ac-[hLeu]YCVGK[AEF](DOTA)DVYC[Trp(5-F)]FT-NH2; disulfide 3-11)"
